ChEMBL document CHEMBL5257068, “Synthesis and biological evaluation of DIDS analogues as efficient inhibitors of RAD51 involved in homologous recombination” (Bioorg Med Chem Lett, 2023)

Key:
[1] = target: T1, DNA repair protein RAD51 homolog 1 (Homo sapiens, UniProt Q06609); experiment: Inhibition of RAD51 (unknown origin) assessed as reduction in novel 58/33-dsDNA formation incubated for 1 hr by electrophoresis based DNA strand exchange assay
T1 sequence (Q06609 whole entry): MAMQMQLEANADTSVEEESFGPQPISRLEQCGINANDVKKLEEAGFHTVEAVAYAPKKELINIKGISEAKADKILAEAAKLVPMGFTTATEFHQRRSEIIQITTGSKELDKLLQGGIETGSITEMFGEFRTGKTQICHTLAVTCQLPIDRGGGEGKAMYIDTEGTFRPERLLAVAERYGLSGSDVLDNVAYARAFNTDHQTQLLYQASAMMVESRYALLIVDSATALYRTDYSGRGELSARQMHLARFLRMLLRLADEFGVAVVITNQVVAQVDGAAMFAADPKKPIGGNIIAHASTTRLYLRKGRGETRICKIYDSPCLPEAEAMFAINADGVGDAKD

[2] = target: T1, DNA repair protein RAD51 homolog 1; experiment: Inhibition of RAD51 (unknown origin) mediated homologous recombination
[3] = target: T1, DNA repair protein RAD51 homolog 1; experiment: Inhibition of RAD51 (unknown origin) using labeled 100-ss DNA as substrate assessed as reduction in DNA D-loop formation by [gamma-32P]ATP based scintillation counter method
[4] = system: DU-145; experiment: Cytotoxicity against human DU-145 cells overexpressing RAD51 assessed as cell viability at 1 uM incubated for 72 hrs by MTT assay relative to control; format: functional; details: read-out: Activity
[5] = system: DU-145; experiment: Cytotoxicity against human DU-145 cells overexpressing RAD51 assessed as cell viability at 10 uM incubated for 72 hrs by MTT assay relative to control; format: functional; details: read-out: Activity
[6] = system: DU-145; experiment: Cytotoxicity against human DU-145 cells overexpressing RAD51 assessed as cell viability at 50 uM incubated for 72 hrs by MTT assay relative to control; format: functional; details: read-out: Activity
[7] = target: T1, DNA repair protein RAD51 homolog 1; experiment: Inhibition of wild type human RAD51 expressed in Escherichia coli BL21-DE3 using 100 bp ssDNA probe as substrate assessed as prevention of D-loop formation preincubated for 5 mins followed by plasmid DNA addition and measured after 15 mins by agarose gel electrophoresis method

Compound	IC50 [1]	IC50 [3]	viability at 1 µM [4]	viability at 10 µM [5]	viability at 50 µM [6]	other results
CC(=O)Nc1ccc(/C=C/c2ccc(NC(C)=O)cc2S(=O)(=O)O)c(S(=O)(=O)O)c1	> 50 µM					
O=C1C(Cl)=C(N2CCOCC2)C(=O)N1c1ccc(Cl)c(Cl)c1						IC50 [2]: 20 µM
O=S(=O)(Nc1ccc(/C=C/c2ccc(NS(=O)(=O)c3ccccc3)cc2)cc1)c1ccccc1		> 50 µM				
O=[N+]([O-])c1ccc(/C=C/c2ccc([N+](=O)[O-])cc2S(=O)(=O)O)c(S(=O)(=O)O)c1		> 50 µM				
O=C(Nc1ccc(/C=C/c2ccc(NC(=O)c3ccccc3)cc2S(=O)(=O)O)c(S(=O)(=O)O)c1)c1ccccc1	> 50 µM		100%	100%	100%	
O=C(Nc1ccc(/C=C/c2ccc(NC(=O)Oc3ccccc3)cc2S(=O)(=O)O)c(S(=O)(=O)O)c1)Oc1ccccc1	3.8 µM	2.3 µM	100%	100%	87%	
[N-]=[N+]=Nc1ccc(/C=C/c2ccc(N=[N+]=[N-])cc2S(=O)(=O)O)c(S(=O)(=O)O)c1	10 µM	21.5 µM	87%	94%	93%	IC50 [7]: 44.3 µM
CC(C)COC(=O)Nc1ccc(/C=C/c2ccc(NC(=O)OCC(C)C)cc2S(=O)(=O)O)c(S(=O)(=O)O)c1		> 50 µM				
COc1ccc(C(=O)Nc2ccc(/C=C/c3ccc(NC(=O)c4ccc(OC)cc4)cc3S(=O)(=O)O)c(S(=O)(=O)O)c2)cc1	3 µM	6.5 µM			100%	
N#Cc1ccc(/C=C/c2ccc(C#N)cc2S(=O)(=O)O)c(S(=O)(=O)O)c1	1.3 µM	4.9 µM	99%	94%	100%	
O=C(Nc1ccc(/C=C/c2ccc(NC(=O)Oc3ccccc3)cc2)cc1)Oc1ccccc1		30.5 µM				
O=[N+]([O-])c1ccc(S(=O)(=O)Nc2ccc(/C=C/c3ccc(NS(=O)(=O)c4ccc([N+](=O)[O-])cc4)cc3S(=O)(=O)O)c(S(=O)(=O)O)c2)cc1		> 50 µM				
CCOC(=O)Nc1ccc(/C=C/c2ccc(NC(=O)OCC)cc2S(=O)(=O)O)c(S(=O)(=O)O)c1	> 50 µM					
CCC(=O)Nc1ccc(/C=C/c2ccc(NC(=O)CC)cc2S(=O)(=O)O)c(S(=O)(=O)O)c1	> 50 µM					
COS(=O)(=O)c1cc(NC(=O)Oc2ccccc2)ccc1/C=C/c1ccc(NC(=O)Oc2ccccc2)cc1S(=O)(=O)OC		> 50 µM				
O=S(=O)(O)c1cc(I)ccc1/C=C/c1ccc(I)cc1S(=O)(=O)O	17.5 µM		91%	89%	84%	
O=c1c2ccccc2nc(/C=C/c2cccnc2)n1Cc1ccccc1			95%	79%	9%	
CC(=O)Nc1ccc(/C=C/c2ccc(N=C=S)cc2S(=O)(=O)O)c(S(=O)(=O)O)c1		29 µM				IC50 [7]: 29 µM
N#Cc1ccc(/C=C/c2ccc([N+](=O)[O-])cc2S(=O)(=O)O)c(S(=O)(=O)O)c1		20 µM	90%	85%	88%	
O=C(Nc1ccc(CCc2ccc(NC(=O)Oc3ccccc3)cc2S(=O)(=O)O)c(S(=O)(=O)O)c1)Oc1ccccc1		30 µM				
O=S(=O)(O)c1cc(N=C=S)ccc1/C=C/c1ccc(N=C=S)cc1S(=O)(=O)O	0.75 µM	0.9 µM	90%	87%	83%	IC50 [7]: 0.9 µM
N#Cc1ccc(CCc2ccc(C#N)cc2S(=O)(=O)O)c(S(=O)(=O)O)c1		> 50 µM				
[N-]=[N+]=Nc1ccc(/C=C/c2ccc(N=[N+]=[N-])cc2)cc1		> 50 µM				
Cc1ccc(S(=O)(=O)Nc2ccc(/C=C/c3ccc(NS(=O)(=O)c4ccc(C)cc4)cc3S(=O)(=O)O)c(S(=O)(=O)O)c2)cc1			100%	100%	100%	
